Where “and” joins values, the source holds several entries; their conditions need not be identical. Equal values may be shown once. Entries after “also recorded” stand apart in the source; their conditions may differ.
Key:
[1] = molecular target: T1, mouse TNF (Mus musculus, UniProt P06804); assay: TNF reporter gene assay HEK-293, mouse TNF; format: cell-based; settings: HEK-293 NF-kB reporter gene assay
T1 construct: stabilise an asymmetrical form of the soluble TNF trimer
T1 sequence (P06804 80-235 limits assumed): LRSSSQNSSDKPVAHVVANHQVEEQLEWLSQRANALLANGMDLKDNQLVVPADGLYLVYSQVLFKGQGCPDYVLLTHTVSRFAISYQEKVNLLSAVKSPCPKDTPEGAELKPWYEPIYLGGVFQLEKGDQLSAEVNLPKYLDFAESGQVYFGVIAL
Experimental: Stimulation of HEK-293 cells by TNF leads to activation of the NF-κB pathway. The HEK-Blue^TM CD40L SEAP (secreted embryonic alkaline phosphatase) reporter cell line used to determine TNF activity (InvivoGen, #hkb-CD40, cells were described as mycoplasma free when purchased and were tested using Mycoalert [Lonza] after each batch of assay vial preparation). Compounds were titrated in DMSO and pre-incubated with TNF at a concentration giving half maximal response (10 pM for human or 20 pM for mouse) or the anti-human TNFR1 agonist antibody (R&D Systems. #AF 225) for 1 h. Cells were added to the compound/stimulus mixture and further incubated for 18 h. SEAP was measured using the colorimetric substrate HEK-Blue Detect^TM or QUANTI-Blue^TM from InvivoGen. Percentage inhibitions for compound dilutions were calculated between a DMSO control and maximum inhibition (by excess anti-TNF biologic, or NF-κB inhibitor–TPCA-1 [Tocris #2559, R&D Systems]). The IC50 was determined as the point of inflexion between the fitted minimum and maximum of the compound dose response curve, calculated using 4PL fitted curve. Mean IC50s are reported as a mean of at least two experiments. Dose response curves for TNF and the anti-human TNFR1 agonist antibody are shown in Supplementary Fig. 9.

[2] = system: Balb/c mice (CAIA model); assay: Collagen antibody induced arthritis (CAIA) model; format: in vivo, mouse; parameters: key to Daily arthritis score: 0 = no arthritis, 3 = wrist/ankle, pad and digits affected; settings: Ab501 i.v. then s.c.; for Daily arthritis score: individual mice, UCB-9260 150 mg/kg po bid
Experimental: Ab501 (in-house anti-mouse TNF antibody, […]) was administered intravenously 6 h post-LPS administration followed by three further doses administered subcutaneously at 48-h intervals. Animals were scored for signs of arthritis and weighed daily. The following scoring system was used for signs of arthritis: 0-no arthritis, 1-wrist/ankle affected, 2-wrist/ankle and pad affected and 3-wrist/ankle, pad, and digits affected. Data shown as the mean ± standard error of arthritis clinical score for the treatment group. Statistical significance (*p < 0.05, **p < 0.01) was determined using one-way ANOVA with Dunnett’s multiple comparison test.

[3] = Mouse free fraction; format: in vitro ADME; settings: read-out: Mouse free fraction (Fu)
[4] = system: human TNF superfamily; assay: Thermal denaturation, human TNF superfamily; format: binding; settings: 100 µM compound, 0.1 mg/mL sample; single experiment
Experimental: A fluorescence probed thermal denaturation assay was performed to assess the effect of the compounds on the thermal stability of TNF (or other members of the TNF family) as a measure of compound binding. The reaction mixture contained 5 µL of 30× SYPRO® Orange dye (Invitrogen) and 5 µL of TNF (at 1 mg/mL), 37.5 μL PBS, pH 7.4 and 2.5 μL of compound (at 2 mM in DMSO). The mixture (10 µL) was dispensed in quadruplicate into a 384 PCR optical well plate and was run on a 7900HT Fast Real-Time PCR System ([…]). The PCR System heating device was set at 20 °C to 99 °C with a ramp rate of 1.1 °C min^−1; fluorescence changes in the wells were monitored by a CCD device. The fluorescence intensity increase was plotted as a function of temperature and the Tm calculated as the midpoint of this denaturation curve (determined as the point of inflection).
Compound based thermal stability increase (oC)
100 µM compound 0.1 mg/mL sample […]
compared to human TNF. Human proteins were provided through a collaboration with Beryllium. Data from a single experiment. […]
compared to mouse TNF. Mouse proteins were purchased from R&D Systems. (Note: No Tm for Lymphotoxin (LTa) was detected in this assay making a change in Tm unmeasurable).
Data from a single experiment.
(also on this page, place not known: 16.0Thermal 10Thermal stability difference (oC) stability increase (oC))

[5] = Dynamic light scattering (colloidal aggregation); format: physicochemical; settings: 10 μM; no detergent; 25°C; n=5
Experimental: Dynamic light scattering (DLS) experiments have been performed with compounds […]
baseline control and positive control (miconazole at 100 μM) were included. The radius data […]
compound in the absence of detergent.
DLS data (Malvern Nano ZS). Each sample (150 μl) was measured 5 times in a low volume disposable sizing cuvette at 25°C using 173º non-invasive backscatter (NIBS). […]

[6] = molecular target: TNF (Homo sapiens, UniProt P01375); assay: Human TNF induced neutrophil recruitment in vivo; parameters: stabilise an asymmetrical form of the soluble TNF trimer; settings: for CD45+ GR-1+ cells/mL in the peritoneal cavity: human TNF, individual mice
Experimental: All in vivo studies were reviewed by an internal Ethical Review Body (ERB) and conducted in accordance with the Animals (Scientific Procedures) Act 1986, EU Directive 2010/63/EU. […] Anti-TNFα biologics, CDP571[21] (10 mg/kg) and etanercept (30 mg/kg), diluted in PBS, were dosed intravenously prior to human and mouse TNF challenge. Two hours after the TNF challenge, mice were sacrificed and the peritoneal cavity lavaged with 3 mL of FACS buffer. An aliquot (0.3 mL) of lavage fluid was used to assess the number CD45^+GR1^+ cells by flow cytometry. Briefly, the cells were treated with ACK lysis buffer, washed and suspended in FACS buffer prior to staining with FITC anti-mouse CD45 and PE anti-mouse GR1. Data are shown as mean ± standard error of the number of CD45^+GR-1^+ cells. Statistical significance (*p < 0.05, **p < 0.01, ****p < 0.0001) was determined using one-way ANOVA with Dunnett’s multiple comparison test.

Chain of TNF (P01375 77-233 limits assumed): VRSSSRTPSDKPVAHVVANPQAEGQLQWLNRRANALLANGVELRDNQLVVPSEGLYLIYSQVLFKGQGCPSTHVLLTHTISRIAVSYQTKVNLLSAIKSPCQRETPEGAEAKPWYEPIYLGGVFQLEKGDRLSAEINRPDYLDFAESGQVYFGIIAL

With `Cc1ccc(C)c(Cn2c(C(O)c3ccncc3)nc3ccc(-c4cnn(C)c4)cc32)c1` (stereo not drawn) [UCB-9260] the IC50 [1] was 95 nM, the Daily arthritis score ([2]; Day 0) was 0 and the Daily arthritis score ([2]; Day 1) was 0. For the same molecule, the Daily arthritis score ([2]; Day 2) was 0, the Daily arthritis score ([2]; Day 3, 150 mg/kg) was 0 and 2 and 1 and the Daily arthritis score ([2]; Day 4, 150 mg/kg) was 3 and 0 and 1 and 2. The Daily arthritis score ([2]; Day 5, 150 mg/kg) was 2 and 0 and 1 and 3, the Daily arthritis score ([2]; Day 6, 150 mg/kg) was 1 and 0 and 2 and 3 and the Daily arthritis score ([2]; Day 7, 150 mg/kg) was 0 and 2 and 3 and 1. For the same molecule, the “effect on arthritis clinical score” value ([2]; UCB-9260 150 mg/kg po bid from 6 h after LPS) was “significant reduction of the clinical score”, the fraction unbound [3] was 0.024 and the “change in Tm of other human TNF superfamily members” value [4] was “negligible effect; also recorded: No other protein tested showed a significant change in Tm”. The “colloidal aggregation (DLS radius)” value [5] was “no evidence of colloidal aggregation”, the “CD45+ GR-1+ cells/mL in the peritoneal cavity” value (from here on “CD45+ GR-1+ cells/mL”) ([6]; 10mg/kg) was 80382.4 cells/mL and 68398.8 cells/mL and 97517.0 cells/mL and 65083.3 cells/mL and 43379.0 cells/mL and 51529.8 cells/mL and the “CD45+ GR-1+ cells/mL” value ([6]; 30mg/kg) was 12661.4 cells/mL and 54428.1 cells/mL and 25233.7 cells/mL and 91899.5 cells/mL and 50362.8 cells/mL and 37741.7 cells/mL. The “CD45+ GR-1+ cells/mL” value ([6]; 100mg/kg) was 14437.1 cells/mL and 19826.5 cells/mL and 38381.4 cells/mL and 4238.2 cells/mL and 19466.7 cells/mL and 51556.6 cells/mL and 16326.3 cells/mL and 11513.0 cells/mL, the “CD45+ GR-1+ cells/mL” value ([6]; 300mg/kg) was 3894.3 cells/mL and 4438.0 cells/mL and 8909.7 cells/mL and 7748.4 cells/mL and 19700.6 cells/mL and 11113.9 cells/mL and the “dose with significant inhibition of neutrophil recruitment” value ([6]; oral, human TNF i.p., CD45+GR1+ cells) was 30 mg/kg.

Reference: publication PMC6923382, “Small molecules that inhibit TNF signalling by stabilising an asymmetric form of the trimer” (Nature Communications, 2019)
